Read-outs that look alike come from different tables or passages of the source.
Legend:
[1] = tested on: stress induced gastric ulcer; assay: Stress ulcer in rats (restraint and water immersion); type: in vivo, Wistar rats, male; settings: for Inhibition (%): an hour before the restraint; for ED50: Rattus norvegicus
Description: Some pyrrolizidine compounds according to the invention were tested to evaluate their anti-ulcer activity in comparison with Pirenzepine and Cimetidine as controls, in accordance with the procedure proposed by Takagi et al.["Japan. J. Pharmacol." Vol. 18, page 9 (1968)].
Wistar rats of male sex were used, each having the body weight of 138 to 207 g. The animals were deprived of food for 24 hours prior to the test. They were immobilized in a restraint cage and immersed for 7 hours to the height of the xiphoid in a water bath kept at 23±1° C. After inflation with 10 ml of 1% formalin, the isolated stomach was opened along the greater curvature. The ulcer index was determined as the sum of the length (mm) of each erosion per rat. The compounds were administered orally an hour before the restraint.

[2] = tested on: aspirin induced gastric ulcer; assay: Aspirin ulcer in rats (pylorus ligated); type: in vivo, Sprague-Dawley rats, male; settings: for Inhibition (%): an hour before pylorus ligation and aspirin (100 mg/kg); for ED50: Rattus norvegicus
Description: Some pyrrolizidine compounds according to the invention were tested to evaluate their anti-ulcer activity on Aspirin ulcer, in comparison with Pirenzepine and Cimetidine as controls, in accordance with the procedure proposed by Okabe et al. ["Japan. J. Pharmacol." Vol. 24, page 363 (1974)].
Sprague-Dawley rats of male sex were used, each having the body weight of 146 to 210 g. The animals were deprived of food for 24 hours prior to the test. After an hour from oral administration of the compounds, the pylorus was ligated under anesthesia by ethyl ether and aspirin (100 mg/kg) suspended with 5% gum arabic was orally administered. After 7 hours from the administration, the stomach was isolated and inflated with 10 ml of 1% formalin. The ulcer index was determined as the sum of the length (mm) of each erosion per rat.
Results are shown in following Table 2 in terms of percent inhibition of anti-ulcer activity with respect to concentrations of 10 to 100 mg/kg.

pupil diameter = assay: Influence on pupil diameter of mice (mydriatic effect); type: in vivo, ICR mice, male; settings: oral, 30 minutes
Description: (Influence on pupil diameter of mice)
Some pyrrolizidine compounds according to the invention were tested to evaluate their influence on the pupil diameter of mice, in comparison with Pirenzepine and Atropine as controls.
The animals were deprived of food for 18 hours prior to the test. After 30 minutes from oral administration of the compounds, the pupil width was measured by a micrometer. Results are shown in following Table 3 in terms of ratio of pupil diameter and mydriatic effect.

Acute toxicity in mice = type: in vivo; settings: mouse, in vivo; oral, 7 days, 5 animals, Litchfield-Wilcoxon's method
Description: (§1) Some pyrrolizidine compounds according to the invention were tested to evaluate their acute toxicity in mice.
(§2) ICR mice of male sex were used, each having the body weight of 24.8 to 30.0 g. The compounds were orally administered and general condition, behavior and mortality were observed daily throughout the experimental period of time (7 days). At end of the period, the surviving animals were sacrificed. Dead animals were sacrificed at the time when they were recognized to be dead. LD50 value was calculated in accordance with Litchfield-Wilcoxon's method.

ICR mice = assay: Acute toxicity in mice; type: in vivo; settings: oral, 7 days, of 5 animals; numeral in parenthesis
Description: as §1, §2

[3] = in words, related arts; cited from earlier work
[4] = oral, concentration of inhibitor which gives 50% inhibition, read-out: ED50
[5] = 30 mg/kg, Atropine (1 mg/kg) = 1.00

SMILES | Inhibition (%) ([1]; 10 mg/kg, oral) | Inhibition (%) ([1]; 100 mg/kg, oral) | ED50 [1, 4] [mg/kg] | Inhibition (%) ([2]; 10 mg/kg, oral) | Inhibition (%) ([2]; 100 mg/kg, oral) | ED50 [2, 4] [mg/kg] | Rate of pupil dia. (pre. = 1) (pupil diameter; 30 mg/kg) | Ratio of mydriasis (pupil diameter; [5]) | LD50 at 168 h (Acute toxicity in mice) [mg/kg] | number of dead animals (ICR mice) | Rate of pupil dia. (pre. = 1) (pupil diameter; 1 mg/kg) | Ratio of mydriasis (pupil diameter; 1 mg/kg) | ED50 ([1]; po) [mg/kg] | ED50 ([2]; po) [mg/kg] | side effects [3]
O=C1Nc2cccnc2N(C(=O)C23CCCN2CCC3)c2ccccc21 [Example 5, 5,11-Dihydro-11-(pyrrolizidine-7a-carbonyl)-6H-pyrido(2,3-b)(1,4)-benzodiazepin-6-one] | 31.7 | 80.2 | 23.6 | 23.6 | 82.2 | 27.9 | 0.9 | 0.19 | > 1000 | 1 |  |  |  |  | 
c1ccc2c(c1)Sc1ccccc1N2CCC12CCCN1CCC2 [Example 2, 10-[2-(7a-Pyrrolizidinyl)ethyl)phenothiazine] | 38.6 | 87.0 | 16.4 | 53.3 | 73.2 | < 10 | 4.6 | 0.98 | < 1000 | 4 |  |  |  |  | 
CN(C)S(=O)(=O)c1ccc2c(c1)N(CC13CCCN1CCC3)c1ccccc1S2 [Example 3, 2-(N,N-Dimethylsulfamoyl)-10-(7a-pyrrolizidinylmethyl)phenothiazine] | 49.4 | 65.6 | 11.8 | 19.7 | 36.5 | > 100 | 1.1 | 0.23 | > 1000 |  |  |  |  |  | 
CN1[C@@H]2CC[C@H]1C[C@@H](OC(=O)C(CO)c1ccccc1)C2 (stereo partly drawn) [Atropine, reference compound] |  |  |  |  |  |  |  |  |  |  | 4.7 | 1.00 |  |  | 
c1ccc2c(c1)Sc1ccccc1N2CC12CCCN1CCC2 [Example 1, 10-(7a-Pyrrolizidinylmethyl)phenothiazine] | 55.4 | 92.5 | < 10 | 58.3 | 63.5 | < 10 | 2.7 | 0.57 | > 1000 |  |  |  |  |  | 
CN/C(=N/CCSCc1nc[nH]c1C)NC#N [Cimetidine, reference compound] | 16.9 | 81.5 |  | 12.2 | 69.6 |  |  |  |  |  |  |  | 33.8 | 50.4 | side effects of forming a perforation in ulcer and strengthening a delayed hypersensitive reaction
CN1CCN(CC(=O)N2c3ccccc3C(=O)Nc3cccnc32)CC1 [Pirenzepine, reference compound] | 7.2 | 98.8 | 26.3 | 22.1 | 90.5 | 23.7 | 3.4 | 0.72 |  |  |  |  |  |  | side reactions due to supression of muscarinic receptor, although those are somewhat weak
C[Si](C)(C)c1cccc2c1N(CC13CCCN1CCC3)c1ccccc1S2 [Example 4, 10-(7a-Pyrrolizidinylmethyl)-1-trimethylsilylphenothiazine] |  |  |  | 17.7 | 65.6 |  |  |  | > 1000 |  |  |  |  | 60.4 | 
